{"source": "patent US20050054722A1", "about": "“Inhibition of two-component signal transduction systems” (Unisearch Limited,, priority 1999, published 2005)", "key": {"[1]": {"test_system": "P. syringae var tomato BB27 swarming (GacS/GacA)", "test": "GacS/GacA assay (swarming on 0.4% agar SWM plates)", "assay_type": "cell-based, Pseudomonas syringae var. tomato", "method": "P. syringae var tomato BB27 was grown overnight in SWM media at room temperature. This culture was used to stab inoculate SWM plates made up with 0.4% agar and incubated at room temperature (20° C.). The culture was also used to stab inoculate sets of SWM plates (0.4% agar) that bad been made up with 25 μg/ml and 50 μg/ml of the test compound (stock solutions made up in ethanol). These plates were also incubated at room temperature for 36 hours before being examined for swarming activity and photographed. Before use all 0.4% agar SWM plates were allowed to air-dry for two hours in a laminar flow cabinet at room temperature.\nFuranones interfere with the “swarming” response of Pseudomonas syringae, which is regulated by the GacS/GacA two-component signal transduction system (Kinscherf and Willis, 1999)."}, "[2]": {"test_system": "CopS/CopR two component signal transduction system", "test": "CopS/CopR assay (cop'-lacZ, Cu2+-induced)", "assay_type": "cell-based, Pseudomonas syringae pv. syringae", "conditions": "for cop'-lacZ expression: 0.075 mM CuSO4, 6.5 hours", "method": "P. syringae pv syringae PS61 (pCOP38)(pPT23D) was grown on SWM media (Kinscherf and Willis, 1999) at room temperature with shaking for 48 hours. Five μg/ml streptomycin, 15 μg/ml chloramphenicol and 1.0 mM CuSO4 were added to maintain plasmids. This culture was used to inoculate 50 ml SWM media in side-arm flasks with the addition of antibiotics. These cultures were incubated at room temperature with shaking for 16 hours (OD610=0.2) at which point CuSO4 was added to a concentration of 0.075 mM (CuSO4 solution made up in MQ water).\nThe test compound or mixtures of compounds were dissolved in ethanol and added to cultures to give the required final concentrations. Equal volumes of ethanol were added to Cu^2+ negative and positive cultures. Cultures were incubated for 6.5 hours at room temperature with shaking before being placed on ice. Samples were then removed for β-galactosidase assays. β-galactosidase assays were carried out in the same manner as those for the Taz assay described above.\nThe effect of furanone compound 3 on the CopS/CopR two component signal transduction system that regulates copper resistance in Pseudomonas syringae pv. syringae (Mills et al., 1993) was assessed. […] However, there appears to be no difference in terms of lacZ expression between the two concentrations (p>0.15)."}, "[3]": {"test_system": "Streptococcus spp.", "test": "Minimum inhibitory (growth) concentration, Streptococcus spp.", "assay_type": "cell-based", "conditions": "growth curves, OD 610 nm", "method": "(§1) Growth curve method. Bacteria are grown overnight in standard medium. The following morning, the cells were inoculated into fresh medium at 1% (a 1 in 100 dilution). Furanones were added either at the beginning of growth (time 0) or, as was the case for the B. subtilis experiments, the results of which are shown in FIG. 1, during the mid-logarithmic phase of growth. Growth was then monitored regularly by spectrophotometric readings, at a wavelength of 610 nm. Using the type of growth described above, the minimum growth inhibitory concentration of furanones was determined for S. aureus and Streptococcus spp. were determined for a range of compounds."}, "[4]": {"test_system": "E. faecium", "conditions": "cited from earlier work"}, "[5]": {"test_system": "S. aureus", "conditions": "cited from earlier work"}, "[6]": {"test_system": "S. aureus cells", "conditions": "cited from earlier work"}, "[7]": {"molecular_target": "HPK NRII (Escherichia coli, UniProt P0AFB5)", "sequence (P0AFB5 whole entry)": "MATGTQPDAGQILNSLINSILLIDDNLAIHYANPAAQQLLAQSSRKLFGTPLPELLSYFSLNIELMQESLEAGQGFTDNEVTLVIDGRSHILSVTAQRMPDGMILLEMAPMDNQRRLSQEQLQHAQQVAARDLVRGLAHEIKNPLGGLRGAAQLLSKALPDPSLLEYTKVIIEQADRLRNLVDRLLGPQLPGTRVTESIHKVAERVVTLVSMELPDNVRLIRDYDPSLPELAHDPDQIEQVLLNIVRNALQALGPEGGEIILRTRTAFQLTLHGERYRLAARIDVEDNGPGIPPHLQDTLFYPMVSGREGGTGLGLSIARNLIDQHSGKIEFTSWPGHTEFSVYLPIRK", "conditions": "Hilliard et al. 1999; cited from earlier work"}, "[8]": {"test_system": "Streptococcus pneumoniae", "conditions": "cited from earlier work"}, "[9]": {"test_system": "Staphylococcus aureus", "test": "Minimum inhibitory (growth) concentration, S. aureus", "assay_type": "cell-based", "conditions": "growth curves, OD 610 nm", "method": "as §1"}, "[10]": {"test_system": "Bacillus subtilis strain ATCC 6633 and NCTC 10073", "test": "Growth curves, Bacillus subtilis", "assay_type": "cell-based", "conditions": "compound added at 8-9 hours of growth, FIG. 1", "method": "The compound was added at 8-9 hours, as denoted by the arrows, after the cultures had been growing. B. subtilis has a two component system that, when deleted, results in lysis and cell death.\nas §1, with “nm.” for “nm. Using the type of growth described above, the minimum growth inhibitory concentration of furanones was determined for S. aureus and Streptococcus spp. were determined for a range of compounds.”"}}, "data": [{"smiles": "CCC[C@@H](OC(C)=O)C1=C(Br)/C(=C/Br)OC1=O", "note": "[Compound 3]", "values": [{"measurement": "swarming pattern", "setting": "[1]; 25 μg/ml, 36 hours", "result": "dramatically alters the swarming pattern"}, {"measurement": "growth of P. syringae var. tomato", "setting": "[1]; 50 μg/ml", "result": "did not inhibit the growth"}, {"measurement": "swarming", "setting": "[1]; 50 μg/ml, 36 hours", "result": "shut down swarming"}, {"measurement": "cop'-lacZ expression", "setting": "[2]; 25 μg/ml", "result": "significantly reduced"}, {"measurement": "cop'-lacZ expression", "setting": "[2]; 50 μg/ml", "result": "significantly reduced"}, {"measurement": "growth inhibitory effects", "setting": "[2]; at the concentrations used (25 and 50 μg/ml), P. syringae pv syringae", "result": "did not have any growth inhibitory effects"}]}, {"smiles": "CCC[C@@H](O)C1=C(Br)/C(=C/Br)OC1=O", "note": "[Compound 4]", "values": [{"measurement": "Minimum inhibitory (growth) concentration, Streptococcus spp.", "setting": "[3]", "result": 10, "unit": "µg/mL"}, {"measurement": "normal activity of the CopS/CopR two-component signal transduction system", "setting": "[2]; concentration not given", "result": "appeared to reduce the normal activity"}]}, {"smiles": "NC(N)=NCCc1ccc(OCCC(c2ccccc2)(c2ccccc2)c2ccccc2)cc1", "note": "[RWJ-49815]", "values": [{"measurement": "active concentration (antibacterial)", "setting": "[4]", "result": "1 to 2", "unit": "µg/mL"}, {"measurement": "active concentration (antibacterial)", "setting": "[5]", "result": "1 to 2", "unit": "µg/mL"}, {"measurement": "permeability of the membranes of S. aureus cells", "setting": "[6]", "result": "caused a rapid increase in the permeability"}, {"measurement": "autophosphorylation of the HPK NRII", "setting": "[7]", "result": "inhibited the autophosphorylation"}, {"measurement": "active concentration (antibacterial)", "setting": "[8]", "result": "1 to 2", "unit": "µg/mL"}]}, {"smiles": "O=C1C=C(Br)/C(=C/Br)O1", "note": "[Compound 30]", "values": [{"measurement": "Minimum inhibitory (growth) concentration, Streptococcus spp.", "setting": "[3]", "result": 10, "unit": "µg/mL"}, {"measurement": "swarming response in P. syringae", "setting": "[1]; concentration not given", "result": "inhibited the swarming response"}, {"measurement": "Minimum inhibitory (growth) concentration, Staphylococcus aureus", "setting": "[9]", "result": "1 to 20", "unit": "µg/mL"}]}, {"smiles": "CCCCCC(Br)C1=C(Br)/C(=C/Br)OC1=O", "note": "(centres unmarked) [Compound 33]", "values": [{"measurement": "Minimum inhibitory (growth) concentration, Staphylococcus aureus", "setting": "[9]", "result": 0.5, "unit": "µg/mL"}]}, {"smiles": "CCCCC1=C(Br)/C(=C/Br)OC1=O", "note": "[Compound 2]", "values": [{"measurement": "growth response (optical density)", "setting": "[10]", "result": "induction of cell lysis"}, {"measurement": "Minimum inhibitory (growth) concentration, Staphylococcus aureus", "setting": "[9]", "result": "1 to 10", "unit": "µg/mL"}]}, {"smiles": "CCCCCC(Br)C1=CC(=C(Br)Br)OC1=O", "note": "(centres unmarked) [Compound 34]", "values": [{"measurement": "Minimum inhibitory (growth) concentration, Staphylococcus aureus", "setting": "[9]", "result": 0.25, "unit": "µg/mL"}]}]}
